# Laboratory results: ChEMBL document CHEMBL5329207, “Design, synthesis, and biological evaluation of diaminopyrimidine derivatives as novel focal adhesion kinase inhibitors” (RSC Med Chem, 2023)
# Columns and labels:
# A549 = test: cells; details: Homo sapiens, A549, 72 h
# Description: Antiproliferative activity against human A549 cells assessed as inhibition of cell proliferation incubated for 72 hrs by MTT assay
# MDA-MB-231 = test: cells; details: Homo sapiens, MDA-MB-231, 72 h
# Description: Antiproliferative activity against human MDA-MB-231 cells assessed as inhibition of cell proliferation incubated for 72 hrs by MTT assay
# Focal adhesion kinase 1 [1] = molecular target: T1, Focal adhesion kinase 1 (Homo sapiens, UniProt Q05397); test: Inhibition of FAK (unknown origin) incubated for 50 mins in presence of substrate/ATP by HTRF assay
# Focal adhesion kinase 1 [2] = molecular target: T1, Focal adhesion kinase 1; test: Inhibition of GST-fused FAK (411 to 686 residues)(unknown origin) expressed in baculovirus expression system using poly(Glu:Tyr) as substrate incubated for 5 mins in presence of ATP by K-LISA screening assay
# T1 sequence (Q05397 whole entry, the tested form may be a part): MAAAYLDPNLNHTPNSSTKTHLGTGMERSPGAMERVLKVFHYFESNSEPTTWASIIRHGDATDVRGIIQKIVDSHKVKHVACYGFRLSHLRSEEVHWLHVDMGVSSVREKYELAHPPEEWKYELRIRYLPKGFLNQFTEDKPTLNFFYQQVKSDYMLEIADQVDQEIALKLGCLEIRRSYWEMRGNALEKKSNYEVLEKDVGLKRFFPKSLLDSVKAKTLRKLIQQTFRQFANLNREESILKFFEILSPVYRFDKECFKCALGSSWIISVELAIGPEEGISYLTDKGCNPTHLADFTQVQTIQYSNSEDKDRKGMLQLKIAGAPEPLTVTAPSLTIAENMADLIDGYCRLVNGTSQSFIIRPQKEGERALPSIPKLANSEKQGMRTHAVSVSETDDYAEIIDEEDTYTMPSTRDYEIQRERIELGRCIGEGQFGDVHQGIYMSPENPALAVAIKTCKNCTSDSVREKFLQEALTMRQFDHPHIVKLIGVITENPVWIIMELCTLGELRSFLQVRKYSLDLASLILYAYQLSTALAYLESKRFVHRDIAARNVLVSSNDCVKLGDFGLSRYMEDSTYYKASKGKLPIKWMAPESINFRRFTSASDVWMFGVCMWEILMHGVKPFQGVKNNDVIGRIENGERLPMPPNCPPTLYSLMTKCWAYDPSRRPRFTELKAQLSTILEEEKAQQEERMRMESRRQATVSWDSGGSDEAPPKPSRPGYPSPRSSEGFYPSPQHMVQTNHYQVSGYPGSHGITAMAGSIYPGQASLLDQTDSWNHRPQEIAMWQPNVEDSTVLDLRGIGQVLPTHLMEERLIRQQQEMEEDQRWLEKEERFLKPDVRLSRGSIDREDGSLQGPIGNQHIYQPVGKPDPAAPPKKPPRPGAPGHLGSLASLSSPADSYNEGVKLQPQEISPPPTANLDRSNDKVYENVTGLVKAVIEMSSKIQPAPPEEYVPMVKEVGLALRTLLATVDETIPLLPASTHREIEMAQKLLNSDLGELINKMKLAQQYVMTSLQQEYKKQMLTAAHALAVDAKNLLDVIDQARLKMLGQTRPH
IC50 (A549) [nM],IC50 (MDA-MB-231) [nM],IC50 (Focal adhesion kinase 1 [1]) [nM],IC50 (Focal adhesion kinase 1 [2]) [nM],SMILES
4240,1020,,,CNC(=O)c1ccccc1Nc1nc(Nc2ccc(N3CCOCC3)cc2OC)ncc1Cl
1400,2490,15.7,,COc1cc(C(=O)NC2CCC(O)CC2)ccc1Nc1ncc(Cl)c(Nc2ccccc2P(C)(C)=O)n1 (centres undefined)
,,28.8,,Cc1cc(C(=O)NC2CCNCC2)ccc1Nc1ncc(Cl)c(Nc2ccccc2P(C)(C)=O)n1
,,,1.5,CNC(=O)c1ccccc1Nc1nc(Nc2ccc(N3CCOCC3)cc2OC)ncc1C(F)(F)F
,,413,,CNC1CCN(C(=O)c2ccc(Nc3ncc(Cl)c(Nc4ccccc4P(C)(C)=O)n3)cc2)CC1
110,860,9.6,,CP(C)(=O)c1ccccc1Nc1nc(Nc2ccc(C(=O)NC3CCC(O)CC3)cc2)ncc1Cl (centres undefined)
,,163,,CN(C(=O)c1ccc(Nc2ncc(Cl)c(Nc3ccccc3P(C)(C)=O)n2)cc1)C1CCCNC1 (centres undefined)
2300,1620,8.7,,CP(C)(=O)c1ccccc1Nc1nc(Nc2ccc(C(=O)NC3CCNCC3)cc2)ncc1Cl
,,119,,CN(C(=O)c1ccc(Nc2ncc(Cl)c(Nc3ccccc3P(C)(C)=O)n2)cc1)C1CCNCC1
,,240,,CP(C)(=O)c1ccccc1Nc1nc(Nc2ccc(C(=O)N3CCC[C@@H](N)C3)cc2)ncc1Cl
2230,2120,16.7,,CP(C)(=O)c1ccccc1Nc1nc(Nc2ccc(C(=O)N[C@@H]3CCNC3)cc2)ncc1Cl
,,17.5,,CP(C)(=O)c1ccccc1Nc1nc(Nc2ccc(C(=O)NC3CCC(O)CC3)cc2F)ncc1Cl (centres undefined)
,,31.7,,Cc1cc(C(=O)NC2CCC(O)CC2)ccc1Nc1ncc(Cl)c(Nc2ccccc2P(C)(C)=O)n1 (centres undefined)
520,7530,10.3,,Cc1cc(Nc2ncc(Cl)c(Nc3ccccc3P(C)(C)=O)n2)ccc1C(=O)NC1CCC(O)CC1 (centres undefined)
,,149,,CP(C)(=O)c1ccccc1Nc1nc(Nc2ccc(C(=O)N3CCC(N4CCOCC4)CC3)cc2)ncc1Cl
,,356,,CP(C)(=O)c1ccccc1Nc1nc(Nc2ccc(C(=O)N3CCOCC3)cc2)ncc1Cl
,,328,,CP(C)(=O)c1ccccc1Nc1nc(Nc2ccc(C(=O)N3CCNCC3)cc2)ncc1Cl
,,19.7,,CP(C)(=O)c1ccccc1Nc1nc(Nc2ccc(C(=O)NCC3CCNCC3)cc2)ncc1Cl
1410,1340,6.7,,COc1cc(C(=O)NC2CCNCC2)ccc1Nc1ncc(Cl)c(Nc2ccccc2P(C)(C)=O)n1
,,361,,CP(C)(=O)c1ccccc1Nc1nc(Nc2ccc(C(=O)N3CCC[C@H](N)C3)cc2)ncc1Cl
,,31.9,,Cc1cc(Nc2ncc(Cl)c(Nc3ccccc3P(C)(C)=O)n2)ccc1C(=O)NC1CCNCC1
,,27.5,,CP(C)(=O)c1ccccc1Nc1nc(Nc2ccc(C(=O)NC3CCNCC3)cc2F)ncc1Cl
2650,8690,15.8,,CP(C)(=O)c1ccccc1Nc1nc(Nc2ccc(C(=O)NC3CCNCC3)c(F)c2)ncc1Cl
390,2480,15.2,,CP(C)(=O)c1ccccc1Nc1nc(Nc2ccc(C(=O)NC3CCC(O)CC3)c(F)c2)ncc1Cl (centres undefined)
2210,2350,14.3,,CP(C)(=O)c1ccccc1Nc1nc(Nc2ccc(C(=O)N[C@H]3CCNC3)cc2)ncc1Cl
